In US4238491A (priority 1977, dated 1980):
Counter-ions that a name gives are not always drawn. Like-named read-outs stand apart in the source and are kept apart here.

Key:
blood pressure of SHR = assay: Antihypertensive effect by single administration, SHR, direct cannulation; assay type: in vivo, rat (spontaneously hypertensive rats; conditions: for Rate of Effects (relative to MR): from DB20; for ED (20% blood pressure decrease): Rattus norvegicus, read-out: DB20 (20% blood pressure descending dose)
Method: The effect was examined through both direct and modified tail-cuff methods using male SHRs aged 25 to 30 weeks and weighing about 300 g.
In the direct cannulation method, polyethylene cannules were inserted in femoral arteries of the conscious unanesthesized SHRs under back-fixation,and MR solution was administered in an amount of 0.1 mg/100 g of weight for venous injection, and 1 ml/100 g of weight for oral administration. Changes in the blood pressure over 6 hours were measured with a multi-purpose polygraph RM-85 made by NIHON KODEN Co., Ltd. MR was dissolved in 0.9% NaCl aqueous solution with 1 N-HCl, and the solution was neutralized for use.

in vivo = assay type: in vivo, rat (SD (SPF)); conditions: rat, in vivo; oral sub-acute, rats; read-out: ineffective dose
Method: All the rats were observed daily and general symptoms noted. Weight was measured daily, average food-intake once every three days, and average water-intake once every two days.

[1] = converted from FIG. 15 data to 20 mg/kg basis
Method: Blood was drawn from branchial vein of dogs, vein of ear of rabbits and carotic artery of rats after slaughter. Urine was collected with urine bladder catheter for rabbits and metabolic cages for rats. Gathering bile was performed with biliary duct cannulation without anesthesia.

hypertension = conditions: cited from earlier work; for antihypertensive effect / side effects: remedies for hypertension
rats = conditions: in connection with RCN; cited from earlier work

For `NS(=O)(=O)c1cc2c(cc1Cl)NC(C(Cl)Cl)NS2(=O)=O` (stereo not shown) [Trichlormethiazide], the “Rate of Effects (relative to MR)” value (blood pressure of SHR; I.V.) was 0.05, the “Rate of Effects (relative to MR)” value (blood pressure of SHR; P.O.) was 0.07 and the ED (20% blood pressure decrease) (blood pressure of SHR; iv, I.V.) was 79.8 mg/kg. The ED (20% blood pressure decrease) (blood pressure of SHR; po, P.O.) was 150 mg/kg.

With `C[C@](N)(Cc1ccc(O)c(O)c1)C(=O)O` [L-alpha-methyl-dopa] the “Rate of Effects (relative to MR)” value (blood pressure of SHR; I.V.) was 0.01, the “Rate of Effects (relative to MR)” value (blood pressure of SHR; P.O.) was 0.01 and the ED (20% blood pressure decrease) (blood pressure of SHR; iv, I.V.) was 303 mg/kg. It also gave an ED (20% blood pressure decrease) (blood pressure of SHR; po, P.O.) of 1740 mg/kg.

In the case of `COC(=O)[C@H]1[C@H]2C[C@@H]3c4[nH]c5cc(OC)ccc5c4CCN3C[C@H]2C[C@@H](OC(=O)/C=C/c2cc(OC)c(OC)c(OC)c2)[C@@H]1OC` [RCN, Rescinnamin], the NOAEL (in vivo) is reported as 6 mg/kg, the ED (20% blood pressure decrease) (blood pressure of SHR; iv) is reported as 1.3 mg/kg and the ED (20% blood pressure decrease) (blood pressure of SHR; po) is reported as 9.7 mg/kg. For the same compound, the “Area under the Curve of MR Content in Serum” value [1] was 20.2, the antihypertensive effect (hypertension) was “prolonged antihypertensive effect” and the side effects (hypertension) was “uneasiness due to central nervous system depression, depressed state and loss of vitality”. For the same compound, the “pathological change of stomach mucous” value (hypertension; when RCN is used) was “often occurs” and the “pathological changes in adrenal and liver” value (rats) was “not reported”.

With `COc1cc2[nH]c3c(c2cc1OC)CCN1C[C@H]2[C@H](C)OC=C(C(=O)OCCN(C)C)[C@H]2C[C@H]31.Cl.Cl` [Dimethylaminoethyl reserpilinate dihydrochloride] the “DB20 (20% blood pressure descending dose)” value (blood pressure of SHR; I.V.) was 415.7 mg/kg, the “Rate of Effects (relative to MR)” value (blood pressure of SHR; I.V.) was 0.01 and the “DB20 (20% blood pressure descending dose)” value (blood pressure of SHR; P.O.) was 625.2 mg/kg. For the same compound, the “Rate of Effects (relative to MR)” value (blood pressure of SHR; P.O.) was 0.02.

In the case of `C[N+](C)(C)CCCCCC[N+](C)(C)C` [Hexamethonium chloride], the “Rate of Effects (relative to MR)” value (blood pressure of SHR; I.V.) is reported as 0.08, the “Rate of Effects (relative to MR)” value (blood pressure of SHR; P.O.) is reported as 0.04 and the ED (20% blood pressure decrease) (blood pressure of SHR; iv) is reported as 39.7 mg/kg. For the same compound, the ED (20% blood pressure decrease) (blood pressure of SHR; po) was 320 mg/kg.

With `COC(=O)[C@H]1[C@H]2C[C@@H]3c4[nH]c5cc(OC)ccc5c4CCN3C[C@H]2C[C@@H](OC(=O)c2cc(OC)c(OC)c(OC)c2)[C@@H]1OC` [RSP, Reserpine] the “Rate of Effects (relative to MR)” value (blood pressure of SHR; I.V.) was 17.7, the “Rate of Effects (relative to MR)” value (blood pressure of SHR; P.O.) was 3.11 and the ED (20% blood pressure decrease) (blood pressure of SHR; iv) was 0.2 mg/kg. For the same compound, the ED (20% blood pressure decrease) (blood pressure of SHR; po) was 3.8 mg/kg, the antihypertensive effect (hypertension) was “prolonged antihypertensive effect” and the side effects (hypertension) was “uneasiness due to central nervous system depression, depressed state and loss of vitality”.

With `NNc1nncc2ccccc12` [Hydralazine hydrochloride] the “Rate of Effects (relative to MR)” value (blood pressure of SHR; I.V.) was 11.7, the “Rate of Effects (relative to MR)” value (blood pressure of SHR; P.O.) was 1.85 and the ED (20% blood pressure decrease) (blood pressure of SHR; iv) was 0.3 mg/kg. The ED (20% blood pressure decrease) (blood pressure of SHR; po) was 6.4 mg/kg.
